The source of these data is ChEMBL document CHEMBL1201862, “PubChem BioAssay data set” (2004).

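Grown in 96-well plates, cells were treated for 48 hours with each compound at five concentrations. Insufficient inhibition: endpoint recorded as highest concentration tested. GI50 marks 50% less growth.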 Active and inactive are the calls of the source. Rule as the data show it: active = GI50 up to about 1.1 µM and inactive = higher. Some results are limits rather than exact numbers.

Among the test systems are LXFL 529; SK-MEL-5; SF-268; HCC 2998; COLO 205; SF-295; OVCAR-4; SW-620; HOP-62; UACC-62; SNB-75; CCRF-CEM; SR; U-251; RXF 393; NCI-H460; HCT-15.
Common to all, as to assay: DTP human tumour cell line panel, 48 h

The GI50 is the concentration at which growth is held to half of that of the control. Turning to `CCOC(=N)CC(=O)c1ccccc1`, the GI50 in the assay on LXFL 529, in the assay on SK-MEL-5, with SF-268, with HCC 2998, with COLO 205 and with SF-295 was > 100 µM (inactive) in each case. The GI50 in the assay with OVCAR-4, with SW-620, in the assay on HOP-62, with UACC-62, in the assay with SNB-75 and in the assay with CCRF-CEM was > 100 µM (inactive) throughout. In addition, the GI50 with SR, with U-251 and in the assay with RXF 393 was > 100 µM (inactive) in each case.
Regarding `Cc1nc2ccccc2c(=O)n1NC(=S)Nc1ccccc1`, the GI50 in the assay with LXFL 529, with SK-MEL-5, with SF-268, in the assay on COLO 205, in the assay on SF-295 and in the assay with NCI-H460 was > 100 µM (inactive) throughout. The GI50 with OVCAR-4 is 91.2 µM (inactive); in the assay with SW-620 it was > 100 µM (inactive); in the assay with HOP-62, > 100 µM (inactive); in the assay with HCT-15, more than 100 µM; with UACC-62, > 100 µM (inactive); with SNB-75, 4.99 µM (inactive). Also, the GI50 was > 100 µM (inactive) with CCRF-CEM, > 100 µM (inactive) in the assay on SR, > 100 µM (inactive) in the assay with U-251 and 75.7 µM (inactive) in the assay with RXF 393.
With `O=c1oc2c3ccc4ccccc4c3n(CCN3CCOCC3)c2c2ccccc12`, the GI50 in the assay with LXFL 529 is > 100 µM (inactive); with SF-268, 19.7 µM (inactive); in the assay with HCC 2998, > 100 µM (inactive); with COLO 205 it was > 100 µM (inactive); in the assay on SF-295 it was 6.38 µM (inactive); in the assay with NCI-H460, 0.755 µM (active). In addition, the GI50 with OVCAR-4 is > 100 µM (inactive); in the assay with SW-620 it was 5.73 µM (inactive); with HOP-62, 26.4 µM (inactive); in the assay on UACC-62, 3.68 µM (inactive); in the assay with SNB-75, 6.08 µM (inactive); in the assay with CCRF-CEM, 1.48 µM (inactive). Also, the GI50 with SR was 1.15 µM (inactive).
With `CCOc1ncnc2ccc(Cl)c(I)c12`, the GI50 was 81.1 µM (inactive) with LXFL 529; 59.8 µM (inactive) in the assay with SK-MEL-5; 31.2 µM (inactive) with SF-268; > 100 µM (inactive) in the assay on HCC 2998; > 100 µM (inactive) in the assay with COLO 205; > 100 µM (inactive) in the assay with SF-295. For the same compound, the GI50 in the assay with NCI-H460 was 80.7 µM (inactive); in the assay on OVCAR-4, 56.6 µM (inactive); in the assay on SW-620, > 100 µM (inactive); with HOP-62 it was > 100 µM (inactive); in the assay on HCT-15, more than 100 µM; in the assay on UACC-62 it was 46.5 µM (inactive). For the same compound, the GI50 in the assay on CCRF-CEM is 70.6 µM (inactive); in the assay with SR, 47.2 µM (inactive); with U-251, > 100 µM (inactive); in the assay on RXF 393, 15 µM (inactive).
For the compound `N#CC(C(=O)/C(=N/N)C(C#N)c1ccc(Cl)cc1)c1ccc(Cl)cc1` (stereo not given), the GI50 in the assay on LXFL 529, in the assay with SK-MEL-5, in the assay with SF-268, with HCC 2998, in the assay on COLO 205 and in the assay on SF-295 was > 100 µM (inactive) in each case. The GI50 in the assay with NCI-H460 is > 100 µM (inactive); in the assay on OVCAR-4, > 100 µM (inactive); in the assay on SW-620, > 100 µM (inactive); in the assay with HOP-62, > 100 µM (inactive); with HCT-15 it was more than 100 µM; with UACC-62, > 100 µM (inactive). Also, the GI50 with SNB-75, in the assay with CCRF-CEM, in the assay on U-251 and in the assay with RXF 393 was > 100 µM (inactive) throughout.
`O=C1Nc2nc3ccccc3n2N=C2CCCC12` (stereo not given): the GI50 in the assay on LXFL 529, in the assay with SK-MEL-5, in the assay with SF-268, in the assay with HCC 2998, in the assay with COLO 205 and in the assay with SF-295 was > 100 µM (inactive) each time. Also, the GI50 is > 100 µM (inactive) with NCI-H460; > 100 µM (inactive) in the assay on OVCAR-4; > 100 µM (inactive) with SW-620; > 100 µM (inactive) with HOP-62; more than 100 µM with HCT-15; > 100 µM (inactive) with UACC-62. The GI50 in the assay with SNB-75, with CCRF-CEM, with U-251 and with RXF 393 was > 100 µM (inactive) throughout.
In the case of `O=C1c2ccccc2N2Oc3ccccc3C12c1ccccc1` (stereo not given), the GI50 in the assay with LXFL 529, in the assay with SK-MEL-5, in the assay with SF-268, in the assay with HCC 2998, with COLO 205 and in the assay with SF-295 was > 100 µM (inactive) throughout. The GI50 in the assay on OVCAR-4 was > 100 µM (inactive); with SW-620 it was > 100 µM (inactive); in the assay on HOP-62, > 100 µM (inactive); in the assay on HCT-15 it was more than 100 µM; in the assay with UACC-62 it was > 100 µM (inactive); in the assay on SNB-75 it was > 100 µM (inactive). The GI50 with CCRF-CEM, in the assay on SR, with U-251 and with RXF 393 was > 100 µM (inactive) each time.
For `O=C(CCn1[nH]c(=O)c(Cl)c(Cl)c1=O)NO`, the GI50 in the assay on LXFL 529, in the assay on SK-MEL-5, in the assay on SF-268, with HCC 2998, in the assay with COLO 205 and with SF-295 was > 100 µM (inactive) in each case. Besides, the GI50 was > 100 µM (inactive) with NCI-H460; > 100 µM (inactive) in the assay on OVCAR-4; > 100 µM (inactive) in the assay with SW-620; > 100 µM (inactive) in the assay on HOP-62; more than 100 µM with HCT-15; > 100 µM (inactive) with UACC-62. Also, the GI50 with SNB-75, in the assay with CCRF-CEM, in the assay on U-251 and in the assay with RXF 393 was > 100 µM (inactive) throughout.
Take `CCCCCCCCCCCCC(Br)C(=O)NCC(N)=O` (stereo not given): the GI50 is 9.91 µM (inactive) with LXFL 529; 4.57 µM (inactive) with SK-MEL-5; 3.42 µM (inactive) with SF-268; 16.1 µM (inactive) in the assay with HCC 2998; 21.2 µM (inactive) with COLO 205; 14.3 µM (inactive) with SF-295. In addition, the GI50 in the assay on NCI-H460 is 16 µM (inactive); with OVCAR-4, 3.55 µM (inactive); with SW-620, 16 µM (inactive); with HOP-62, 15 µM (inactive); in the assay with HCT-15 it was 8.87 µM; in the assay on UACC-62 it was 5.86 µM (inactive). Besides, the concentration for 50% growth inhibition (GI50) in the assay with SNB-75 is 0.118 µM (active); in the assay on CCRF-CEM, 2.45 µM (inactive); in the assay with U-251, 11.6 µM (inactive); with RXF 393 it was 3.6 µM (inactive).
